From paper PMC4414309, “Target Modulation by a Kinase Inhibitor Engineered to Induce a Tandem Blockade of the Epidermal Growth Factor Receptor (EGFR) and c-Src: The Concept of Type III Combi-Targeting” (PLoS ONE, 2015) come the findings set out here.

The test system of one data set is NIH3T3 wild type cells. The data set can be described thus: Growth inhibition, sulforhodamine B (SRB) assay, NIH3T3 wild type. The conditions noted are these: Mus musculus, NIH3T3, 120 h, read-out: IC50 growth inhibition NIH3T3 – Wt.
The test system of data set [1] is ERK1/2 phosphorylation in 4T1 tumours. In words: Pharmacodynamics in 4T1 tumours, ERK1/2 phosphorylation. As to conditions: i.v., AL776 40 mg/kg, gefitinib + dasatinib 20 mg/kg each.
Protocol: (§1) Mice were implanted with 4T1 mammary tumour cells, 15 million cells/flank (suspended in 200 μL PBS), subcutaneously.
(§2) Mice were sacrificed 1h or 24h after treatment and their tumours were collected and snap frozen at -80°C for further analysis using western blots. Tumours were crushed using a mortar/pestle chilled using liquid nitrogen and lysed with RIPA buffer diluted to a 1X concentration and supplemented with 1mM PMSF (Cell Signaling Technology, USA). Western blot analysis was carried out with the tumour samples, similar to the method described earlier.
The subject of data set [2] is NIH3T3-Her14 (EGFR transfected) cells. The data set can be described thus: Absorption and hydrolysis kinetics of AL776 in cells (HPLC). Type of data set: in vitro ADME, mouse. The procedure:
NIH3T3-Her14 cells were seeded in 6-well plates (1 x 10^6 cells/well) and grown in DMEM with 10% FBS for 24 h. Cells were then treated with 25 μM of AL776 and incubated at 37°C for 1h, 2h, 6h, 24h or 48h. The media was collected and extracted using twice the volume of methanol, on ice and centrifuged for 20 min at 13,000 rpm at 4°C. The resulting supernatant was filtered, evaporated to dryness and reconstituted with 100 μL of methanol. Cells were collected using trypsin and the cell pellet obtained was rinsed once with PBS and lysed with methanol (500 μL /tube) on ice for 1h. The lysate was centrifuged at 13,000 rpm for 20 min at 4°C and the resulting supernatant was collected into a separate tube and the remaining pellet was subjected to lysis two more times (250 μL /tube). The supernatant from each lysis step were pooled all together, filtered, evaporated to dryness and resuspended in 100 μL of methanol before further analyzing the samples. HPLC analysis was performed using a ACE 5 C18 5 μm column (150 mmx4.6 mm) under elution conditions of gradient 70–75% methanol:water for the first 5 min and isocratic methanol elution until 30 min, using a 0.75 mL/min flow rate. Analyses were performed using a Thermoquest P4000 equipped with a UV2000 detector and an AS300 Autosampler.

The next data set has as its target T1, c-Src (Homo sapiens, UniProt P12931).
T1 construct: purchased Enzo Life Sciences Inc, NY, USA; Signal Chem, Richmond, Canada
In words: In vitro kinase assay, c-Src. Type of data set: biochemical. As to conditions: ATP 50 μM, read-out: IC50 c-Src kinase inhibition. The procedure:
The EGFR and c-Src kinase assays were performed in 96-well plates (NuncMaxisorp) coated with PGT (poly L-glutamic acid L-tyrosine, 4:1, Sigma Aldrich, MO, USA) and incubated at 37°C for 48h prior to using. PGT served as the substrate to be phosphorylated by EGFR (Enzo Life Sciences Inc, NY, USA, Signal Chem, Richmond, Canada) and c-Src (Enzo Life Sciences Inc, NY, USA, Signal Chem, Richmond, Canada) in the presence of ATP (50 μM). […] To each well, 15 ng of EGFR (20 μg/ml) or 6 ng of c-Src (0.1 μg/μl) were added. The phosphorylated substrate was detected using an HRP-conjugated anti-phosphotyrosine antibody (Santa Cruz Biotechnology, CA). The signal was developed by the addition of 3, 3’, 5, 5’-tetramethylbenzidine peroxidase substrate (Kierkegaard and Perry Laboratories, Gaithersburg, MD) and the colorimetric reaction was monitored at 450 nm using a microplate reader ELx808 (BioTek Instruments). The IC50 values were calculated using GraphPad Prism 6.0 (GraphPadSoftware, Inc., San Diego, CA). Each experiment was carried out at least three times, in duplicate.

The test system of data set [3] is EGFR phosphorylation in 4T1 tumours. In words: Pharmacodynamics in 4T1 tumours, EGFR phosphorylation. As to conditions: i.v., AL776 40 mg/kg, gefitinib + dasatinib 20 mg/kg each.
Protocol: as §1, §2
The next data set deals with MDA-MB-231 cells. The data set can be described thus: Growth inhibition, SRB assay, MDA-MB-231. As to conditions: Homo sapiens, MDA-MB-231, 120 h, read-out: IC50 growth inhibition MDA-MB-231. A general note: In SRB staining, fixed cells bind dye roughly in proportion to their protein.
The nature of data set [4]: LC-MS analysis of AL776 hydrolysis in plasma in vivo. The arrangement: species or system CD-1 mice. The method, then: CD-1 mice were divided into groups of three and treated with 80 mg/kg of AL776, injected intraperitoneally (i.p) or intravenously (i.v). Mice were sacrificed and their plasma was collected for further analysis after 0, 5, 15 and 30 min after drug treatment. Plasma samples were extracted using twice the volume of methanol and lysed at 13,000 rpm for 30 min at 4°C. The resulting supernatant from each sample was collected, filtered and evaporated to dryness before reconstituting in 100 μL of methanol. LC-MS analyses were performed on a Synapt G2-S instrument coupled with an Acquity UPLC Class I system both from Waters. Elution rate was set at 500 μL/min using an Eclipse XDB C8, 3.5 um, 2.1 x 100 mm chromatographic column from Agilent Technologies. The experiments were performed with the following eluents: 0.1% aqueous formic acid (eluent A) and methanol (eluent B). The initial mobile phase was 30% B, which was maintained for 0.2 min at the beginning of the run. The following gradient elution was subsequently applied: 30 to 50% B from 0.2 to 4 min; 50 to 80% B from 4 to 10 min; held at 80% B from 10 to 11 min. Thereafter, eluent B was decreased to 30% in 0.2 min and held constant for up to 15 min to allow the column to equilibrate. Each sample was diluted with methanol in order to avoid detector saturation and […] aliquots of the resulting solutions were injected. Analyses were performed with the electrospray interface in positive ion mode and mass spectra acquired from m/z 100 to 1200. For accurate mass determination, Leucine Enkephalin was used as lock mass. The MassLynx software was used for instrument control, data acquisition and data processing.

Data set [5] has as its system NIH3T3-Her14 (EGFR transfected) cells. In words: Growth inhibition, SRB assay, NIH3T3-Her14.
Protocol: (§3) Growth inhibition was measured in cells using the sulforhodamine B (SRB) assay [48]. […] The plates were subsequently rinsed with 1% acetic acid, and allowed to dry overnight. […] The results were analyzed using GraphPad Prism 6.0 (GraphPadSoftware, Inc., San Diego, CA) and the sigmoidal dose response curve was used to determine IC50 values. Each experiment was carried out at least four times, in triplicate.
Data set [6] concerns NIH3T3 wild type and EGFR transfected cells. The data set can be described thus: Apoptosis by annexin V/PI flow cytometry. The class given is cell-based, mouse. As to conditions: 48h. The method, then: NIH3T3 cell lines (wild type and EGFR transfected) were plated in 6-well plates (500,000 cells/well) and allowed to grow overnight (37°C, 5% CO2). […] They were subsequently collected using trypsin (Wisent Inc., St-Bruno, Canada), centrifuged (2000 rpm, 5 min), rinsed with PBS and centrifuged again to obtain a cell pellet. The pellet was re-suspended in binding buffer (1X) and prior to being analyzed, annexin V-FITC and PI stains (eBioscience, San Diego, CA, USA) were added to the cells and incubated for 15 min in the dark at 4°C. Annexin V–FITC and PI binding were analyzed with a Becton Dickinson FACScan. Data were collected using logarithmic amplification of both the FL1 (FITC) and FL2 (PI) channels. Quadrant analysis of coordinate dot plots was done with CellQuestPro software. The experiment was carried out three times.

T1 sequence (P12931 whole entry): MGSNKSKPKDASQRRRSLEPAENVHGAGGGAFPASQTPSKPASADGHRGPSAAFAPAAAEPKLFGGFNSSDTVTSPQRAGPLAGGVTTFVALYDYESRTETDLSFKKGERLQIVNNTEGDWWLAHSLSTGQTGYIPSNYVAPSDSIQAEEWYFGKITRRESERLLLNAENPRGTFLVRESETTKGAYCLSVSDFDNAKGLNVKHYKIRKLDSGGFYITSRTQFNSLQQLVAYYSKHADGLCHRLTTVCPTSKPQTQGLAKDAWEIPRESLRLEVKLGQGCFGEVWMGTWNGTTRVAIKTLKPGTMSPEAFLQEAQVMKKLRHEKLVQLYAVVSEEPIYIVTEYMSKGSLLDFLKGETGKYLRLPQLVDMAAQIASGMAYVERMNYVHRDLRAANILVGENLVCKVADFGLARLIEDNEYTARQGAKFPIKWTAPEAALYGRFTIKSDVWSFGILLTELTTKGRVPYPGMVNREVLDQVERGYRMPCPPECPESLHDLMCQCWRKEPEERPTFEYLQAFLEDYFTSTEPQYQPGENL
Protocol for MDA-MB-231 cells: as §3
Protocol for NIH3T3 wild type cells: as §3

Take `Cc1nc(Nc2ncc(C(=O)Nc3c(C)cccc3Cl)s2)cc(N2CCN(CCOC(=O)CCC(=O)OCCN(C)Cc3ccc(C(=O)Nc4ccc5ncnc(Nc6cccc(Cl)c6)c5c4)cc3)CC2)n1` [AL776]: the IC50 – broadly, the concentration at which inhibition is half-maximal – was determined as 7600 ± 3000 nM in the data set on NIH3T3 wild type cells; 3 nM at c-Src; 50 ± 4 nM in the data set on MDA-MB-231 cells; 180 nM in data set [5] (Mus musculus, 120 h, read-out: IC50 growth inhibition NIH3T3 – Her14). For the same molecule, the “Inhibition of ERK1/2 phosphorylation in tumours” value is given as “strongly inhibited” in data set [1] (1h post-administration) and “reversed” in data set [1] (24 h post-treatment). The “Detection of AL776 in cells and extracellular medium” value in data set [2] (25 μM, 24–48h) is listed as “detectable inside the cells but not in the extracellular medium”. Moreover, the “Intact AL776 found in the cells” value in data set [2] (24h) came out at 50%. The figures for the “Inhibition of EGFR phosphorylation in tumours” value in data set [3] (1h post-administration) and in data set [3] (24 h post-treatment) were “strong blockade” and “reversed”, respectively. The “Intact AL776 in plasma” value is reported as “no intact AL776 found in plasma” in [4] (80 mg/kg i.p., early time points) and “barely detectable levels” in [4] (80 mg/kg i.v., 30 min post-administration). In addition, the “Rank of growth inhibitory potency among the binary targeting molecules” value in data set [5] (EGFR transfectant, S2 Fig.) was “most potent on the EGFR transfectant”. Also, in data set [5] (NIH3T3-Her14 cells, 5 days), the “Growth inhibitory potency compared with gefitinib or dasatinib” value is given as 2–4 fold. Besides, in [6] (1μM dose), the “Level of apoptosis (early + late)” value is given as “higher level of apoptosis than gefitinib or dasatinib”. Besides, the “Lowest concentration inducing apoptosis” value in [6] is 1 µM.
